Laboratory results taken from patent US9394308B2, “Inhibiting the transient receptor potential A1 ion channel” (Merck Sharp & Dohme Corp., priority 2013, dated 2016).
“Also recorded” adds a separate entry of the source.

Key:
[1] = Rodent acute tolerability test, liver function tests (Example 5); format: in vivo, Female Sprague Dawley rats; details: rat; for LFT blood levels ALT and AST (in words): intravenous bolus, about 24 hours post dose; for serum biomarkers of hepatotoxicity (in words): in vivo
Experimental: Compounds of Formula (I) were assessed for acute tolerability in a rodent model at dose levels ranging from 100-200 mg/kg based upon the minimum efficacious dose of each compound. Female Sprague Dawley rats were administered up to a 10 mL/kg dose volume of each compound in 0.9% saline at appropriate concentrations as an intravenous bolus via the lateral tail vein. The animals were observed immediately post dose and for up to twenty four hours post dose and clinical observations were recorded. Additionally, approximately twenty four hours post dose animals were euthanized and blood taken for serum chemistry analysis with a focus on liver function tests (LFTs). The maximum tolerated single dose and LFT results are summarized in Table 3 in FIG. 3, where ( ? ) indicates blood levels of markers for potential liver damage within normal range and (↑) indicates blood levels of markers for potential liver damage elevated above normal range. Referring to the data in Table 3, LFT blood levels of markers for potential liver damage remained within normal range for the compounds of Formula (I), while LFTs were elevated for Comparator Compounds including 5-10 fold elevation above normal for ALT and AST blood levels observed upon administration of Comparator Compound 1.

[2] = Aqueous solubility (Example 2); format: physicochemical; details: method of Example 2
Experimental: Compounds of Formula (I) where R^1 is —CH2—R^1a, and R^1a is phosphate, have suitable levels of aqueous solubility for incorporation in a pharmaceutical composition formulated for intravenous administration. Unless otherwise indicated, the aqueous solubility of compounds of Formula (I) in Tables in FIG. 1 was measured using the procedure of Example 2 (Kerns, E. H., Journal of Pharmaceutical Sciences 2001, 90, 1838-1858, incorporated herein by reference). Solubility data was obtained by this method for compounds of Formula (I) and included in FIG. 1. The chromatographic data was performed using (type of HPLC). The column used was an Xbridge Shield RP18 with the following column dimensions: 4.6×30 mm, 3.5 μm. The mobile phase consisted of deionized water (MPA) with trifluoroacetic acid added in at 0.1% (v/v) (MPC) and HPLC-grade acetonitrile (MPB). The mobile phase flow rate was 2.5 mL/min with the column and sampling operating at ambient temperature. UV detection was set to 280 nm. For all samples used for solubility determination, the mobile phase gradient used was as follows in Table 1g below.
Stock solutions of compounds of Formula (I) where R^1 is —CH2—R^1a, and R^1a is phosphate, were prepared in water at 20 mg/mL. Stock solutions of the compounds of Formula (I), wherein R^1 is hydrogen, were prepared in dimethyl acetamide at 20 mg/mL. […]

CFA Cold Allodynia = experiment: Rodent cold plate pain model, Complete Freund's Adjuvant (Example 4); format: in vivo; details: rat
Experimental: CFA-induced pain test method reported in del Camino et al., J. Neurosci., 30 (45):15165-15174, incorporated herein by reference in its entirety. Briefly, the right hind paw is sensitized to cold temperature (allodynic) by administering 0.1 mL of Complete Freund's Adjuvant (CFA) to that paw. Two to four days later, the time it takes for the animal to lift its CFA-injected paw from the cold surface is recorded compared to its un-injected normal left hind paw. […] To avoid tissue damage, the maximum cut-off time is five minutes. Animals that are allodynic (average PWL to the first three pain behaviors<150 seconds for the CFA-injected hind paw: ˜≧50% difference between the normal and CFA-injected paw) are included in the study and subsequently randomized across treatment groups. The following day, the animals in some groups are dosed with a test compound under blinded conditions. Following the one to two hour pre-treatment time, the post-dose PWL readings are taken again. The efficacy of the drug treatment is assessed by comparing the PWL in the drug treatment animals to those that receive the vehicle.

| SMILES | LFT blood levels ALT and AST (in words) [1] | serum biomarkers of hepatotoxicity (in words) [1] | further results |
| --- | --- | --- | --- |
| C[C@H]1CCCN1c1ncc(-c2cncc(N(COP(=O)(O)O)C(=O)[C@H](C)n3cnc4c3c(=O)n(C)c(=O)n4C)n2)cn1 [((S)-2-(1,3-dimethyl-2,6-dioxo-1,2,3,6-tetrahydro-7H-purin-7-yl)-N-(6-(2-((S)-2-methylpyrrolidin-1-yl)pyrimidin-5-yl)pyrazin-2-yl)propanamido)methyl dihydrogen phosphate] | did not result in abnormally high levels of LFT compounds ALT or AST |  |  |
| C[C@H]1CCCN1c1ccc(-c2csc(NC(=O)Cn3cnc4c3c(=O)n(C)c(=O)n4C)n2)cc1F [Comparator Compound 1, reference compound] |  | elevate the serum biomarkers of hepatotoxicity |  |
| C[C@H]1CCCN1c1ncc(-c2cccc(NC(=O)Cn3cnc4c3c(=O)n(C)c(=O)n4C)n2)cn1 [Comparator Compound 2, reference compound] |  | did not elevate the serum biomarkers of hepatotoxicity | aqueous solubility (in words) [2]: undesirably low aqueous solubility |
| C[C@@H](C(=O)N(COP(=O)([O-])O)c1cccc(-c2cnc(N3CCC[C@H]3C(F)(F)F)nc2)n1)n1cnc2c1c(=O)n(C)c(=O)n2C.[Na+] [Compound 1-A, ((S)-2-(1,3-dimethyl-2,6-dioxo-1,2,3,6-tetrahydro-7H-purin-7-yl)-N-(6-(2-((S)-2-(trifluoromethyl)pyrrolidin-1-yl)pyrimidin-5-yl)pyridin-2-yl)propanamido)methyl dihydrogen phosphate] | did not result in abnormally high levels of LFT compounds ALT or AST |  | effect on cold allodynia (in words) (CFA Cold Allodynia; CFA cold plate model): analgesic effect on cold allodynia; also recorded: reversal of CFA Cold Allodynia; Paw Withdrawal Latency (PWL) (in words) (CFA Cold Allodynia; i.p. administration, CFA model, cold plate 1° C.): increased rodent Paw Withdrawal Latency |
| C[C@@H](C(=O)N(COP(=O)(O)O)c1cncc(-c2cnc(N3CCC[C@H]3C(F)(F)F)nc2)n1)n1cnc2c1c(=O)n(C)c(=O)n2C [Compound 2-E, ((S)-2-(1,3-dimethyl-2,6-dioxo-1,2,3,6-tetrahydro-7H-purin-7-yl)-N-(6-(2-((S)-2-(trifluoromethyl)pyrrolidin-1-yl)pyrimidin-5-yl)pyrazin-2-yl)propanamido)methyl dihydrogen phosphate] | did not result in abnormally high levels of LFT compounds ALT or AST |  |  |
| C[C@@H](C(=O)N(COP(=O)(O)O)c1cncc(-c2cnc(N3CCCC3(C)C)nc2)n1)n1cnc2c1c(=O)n(C)c(=O)n2C [Compound 3-J, (S)-(2-(1,3-dimethyl-2,6-dioxo-1,2,3,6-tetrahydro-7H-purin-7-yl)-N-(6-(2-(2,2-dimethylpyrrolidin-1-yl)pyrimidin-5-yl)pyrazin-2-yl)propanamido)methyl dihydrogen phosphate] | did not result in abnormally high levels of LFT compounds ALT or AST |  |  |
